The source of these data is US20260053750A1, “INHALABLE COMPOSITIONS OF CDK9 INHIBITORS” (THE REGENTS OF THE UNIVERSITY OF CALIFORNIA, priority 2022, published 2026).

Data set [1] is described as follows: encapsulation and release in microparticles of the invention. Format: physicochemical.
The next data set concerns NFκB target genes. As to the kind of experiment: suppression of IL-1β-induced primary inflammatory response genes in human cell culture. It is filed as cell-based. On the procedure: CDK9 inhibitors exert effects on the inflammatory response pathway. For example, the pharmacological CDK9 inhibitor flavopiridol effectively suppresses the activation of a broad range of primary inflammatory response genes, in human cell culture treated with IL-1β for 5 hours (see FIG. 1). Among the 67 different genes (out of 84 total NFκB target genes tested) that were induced by IL-1β, 59 were repressed by flavopiridol co-treatment (including the most-characterized pro-inflammatory cytokines such as IL-1β, Il-6, and TNF). The average magnitude of repression is >86% of maximum induction. […] Importantly, house-keeping genes and non-inducible genes are not affected by CDK9 inhibition short term, indicating potential reduction in side effects.

The subject of data set [2] is TNF-stimulated luciferase reporter expression, driven by a NF-kB responsive promoter, in HEK293 cells. As to the kind of experiment: NF-kB luciferase reporter bioactivity assay. Format: cell-based, Human. As to conditions: 300 nM flavopiridol, 0.6 nM TNF-α, 24 h. On the technique in general: Reporter assays use an easily measured gene product as a stand-in for the process of interest.
Method: The bioactivity of flavopiridol released from ILDF particles was determined by a luciferase reporter assay as described previously. ILDF particles (18.94 mg) containing 0.190% (w/w) flavopiridol was dissolved in DMEM with 10% FBS to a stock solution of 8.9×10^4 nM flavopiridol. The bioactivity of flavopiridol was measured by its ability to suppress TNF-stimulated luciferase reporter expression, driven by a NF-kB responsive promoter. Human embryonic kidney 293 cells (HEK293) cells (ATCC) harboring a NF-kB-driven luciferase reporter were seeded in 96-well plates (10,000 cells/well in triplicates) 24 hours before the experiment. Cells were then treated with 100 μL of media containing 0.6 nM recombinant human TNF-α (Peprotech), in the presence or absence of various amount of dissolved flavopiridol formulation or blank formulation equivalent. After 24 h, 100 μL of 2× lysis buffer (Invitrogen) containing luciferase substrate was added directly to each well. Luminescence was measured in a plate reader (SpectraMax iD3, Molecular Devices). Experiments were performed in triplicate (N=3) from one batch of particles, and results were reported as mean±SD.

For data set [3], the system named is lung fibrosis mouse model (bleomycin). As to the kind of experiment: bleomycin lung fibrosis mouse model, i.p. treatment. To be noted: vs BLM+ vehicle control. It is filed as in vivo, C57B/L6 mice. How it is done: The effects of flavopiridol on lung inflammation and fibrosis were assessed in a lung fibrosis mouse model. C57B/L6 mice were treated with bleomycin (BLM) by microsprayer. At day 7 after BLM treatment, alveolar damage became apparent in the treated mice. At day 9, the mice were divided into 4 groups of 8 animals each. Each group received its corresponding treatment every other day starting at Day 9. At Day 30, the animals were sacrificed and assessed. One group received only phosphate buffer saline (PBS). One group received 28 mg/kg nitedanib by intraperitoneal injection (i.p.). One group received 2.5 mg/kg of flavopiridol i.p. and one group received 28 mg/kg idebenone i.p. Survival and lung morphology were assessed at day 30. […] Lung tissue sections from the treated animals were stained with Masson's trichome staining protocol and exemplary images are shown in FIG. 8D.

The test system of data set [4] is pulmonary fibrosis in mice using bleomycin. As to the kind of experiment: bleomycin pulmonary fibrosis in mice, inhaled flavopiridol. It is filed as in vivo. To be noted: every two days from eight days post-bleomycin, 14-day treatment. On the procedure:
Our experimental model involved the induction of pulmonary fibrosis in mice using bleomycin, followed by the administration of inhaled flavopiridol during the early fibrotic phase of the model. Eight days post-intratracheal instillation of bleomycin, mice were treated with either a vehicle or inhaled flavopiridol every two days. After a 14-day treatment course, lung tissues were harvested and subjected to histological and biochemical analysis. A notable loss of body weight observed in bleomycin-exposed mice served as an indicator of successful fibrosis induction (FIG. 9).

For data set [5] the following is noted: cited from earlier work.
[6] abbreviates: 2.5 mg/kg i.p. every other day from Day 9, Day 30.

Turning to `CCc1cnn2c(NCc3ccc[n+]([O-])c3)cc(N3CCCC[C@H]3CCO)nc12` [Dinaciclib], in data set [1], the “encapsulation and release in microparticles” value is on record as “not encapsulated effectively or released appropriately”.
On to `CN1CC[C@H](c2c(O)cc(O)c3c(=O)cc(-c4ccccc4Cl)oc23)[C@H](O)C1` [flavopiridol, 2-(2-chlorophenyl)-5,7-dihydroxy-8-[(3S,4R)-3-hydroxy-1-methyl-4-piperidinyl]-4-chromenone], for which the “average magnitude of repression” value with NFκB target genes (human cell culture treated with IL-1β for 5 hours, flavopiridol co-treatment) was > 86 % of maximum induction. For the same molecule, the “number of IL-1β-induced genes repressed by flavopiridol co-treatment” value in the data set on NFκB target genes (of 67 genes induced by IL-1β (84 NFκB target genes tested), human cell culture, IL-1β for 5 hours) turned out to be 59. For the same molecule, in data set [2], the TNF-α-stimulated luciferase activity entry is “the luciferase activation was suppressed”. For the same molecule, in data set [3] (setting [6]), the hydroxyproline level result is listed as “statistically significant lower level of hydroxyproline”. Besides, the “percentage of stained area (Masson's trichome, lung sections)” value in data set [3] (setting [6]) was “statistically significant decrease in percentage of stained area”. Further, the survival rate entry is “statistically significant difference in survival rate” in data set [3] (2.5 mg/kg i.p. every other day from Day 9, to Day 30) and “higher survival rate” in data set [4] (vs vehicle group). Moreover, the body weight entry in data set [3] (2.5 mg/kg i.p. every other day from Day 9) is recorded as “generally maintained a higher body weight”. Moreover, the hydroxyproline levels entry in data set [4] was “appeared to suppress the bleomycin-induced increase of hydroxyproline levels”. Moreover, the in-vivo half-life result in data set [5] is reported as “under 6 hours”.
